Read-outs that look alike come from different tables or passages of the source. Positions of bridges follow the written chain, without caps; N, C: chain ends. No end group written: not given here.
Columns and labels:
[1] = test system: 2-degree burns of male SD rats; test: Burn treatment test: histopathology (H&E) of burn site; format: in vivo, SD (Sprague-Dawley) rats; conditions: score 0-4, 14th day after burn
Procedure: (§1) The experiment was carried out with 55 male SD (Sprague-Dawley) rats that were divided into […] groups: 5 rats for normal group (1 group, G1), 9-10 rats for negative control (1 group, G2), 30 rats for experimental group (3 groups, 10 rats in each group, G3, G4, G5), and 9-10 rats for positive control (1 group, G6). In the remaining groups except normal group, burned male SD rats was used for experiment. After SD rats were anesthesized, 2-degree burns, 2 cm in diameter, were induced on the SD rats using an aluminum electric soldering iron.
(§2) Test substance HU022 (SEQ ID NO:1) (G3, G4, G5), normal saline solution (G2) and Fiblast (G6) were applied to the skin of the burned male SD rats repeatedly once a day seven times a week for 7 days. Fiblast was applied to control group (G6) in 10 μg/dose/head, and the experimental group was divided into 3 groups and test substance was applied to each group in 3.3 μg/dose/head (G3), 10 μg/dose/head (G4), and 30 μg/dose/head (G5).
On the 14th day after burn, the burn site on the back was scraped from the dermis and fixed in 10% neutrally buffered formalin solution, and histopathology test was conducted through H&E staining.
(§3) With the measurement results, parametric comparison determined significance via Student's t-test and One-Way ANOVA, and significance testing relative to negative control was conducted. Furthermore, with the histopathology test results of burns, Kruskal-Wallis' H-test was conducted, and when significance between groups was identified, comparison between groups was performed through Mann-Whitney U-test. The computation program for statistics was SPSS 10.1 K. P<0.05 was determined to be statistically significant.

[2] = test system: skin; test: Safety assessment of test product on skin; conditions: use for 4 weeks, dermatologist's physical examination
Procedure: (§4) Women aged 30-65 having wrinkles around eyes were tested. […] They had second and third visits at the interval of 2 weeks after the start of use, and at each visit, were required to respond to various types of assessment and investigation defined in the experiment.
(§5) Furthermore, safety assessment was performed, and for safety of clinical test product, in all subjects having used the test product at least once, abnormal responses found at the second week and fourth week after use and abnormal responses reported during the test period were all used as safety assessment data of the product.

[3] = test system: 2-degree burns of male SD rats; test: Burn treatment test: burn wound area; format: in vivo, SD (Sprague-Dawley) rats
Procedure: as §1, §2
After burn was induced, imaging was performed before test substance was applied, and imaging was performed on 1st, 4th, 8th, 11th, and 15th days, and after imaging, test substance was applied and the applied site was covered with gauze and wrapped with tegaderm. Furthermore, images taken for measuring the burn wound area were analyzed using Image analyzer program.
as §3

[4] = test system: hair growth of C57BL/6 mouse; test: Hair growth test: hair weight; format: in vivo
Procedure: This test was conducted to assess the influence on hair growth of C57BL/6 mouse when 4 types of test substances, HU024 (SEQ ID NO:2), HU025 (SEQ ID NO:3), HU026 (SEQ ID NO:4), and HU027 (SEQ ID NO:5), were applied to the skin for 14 days.
The group design was set to negative control (sterile water for injection G1), test substance HU024 (SEQ ID NO:2) 20 ug/head/day (G2), test substance HU024 (SEQ ID NO:2) 60 ug/head/day (G3), test substance HU025 (SEQ ID NO:3) 20 ug/head/day (G4), test substance HU025 (SEQ ID NO:3) 60 ug/head/day (G5), test substance HU026 (SEQ ID NO:4) 20 ug/head/day (G6), test substance HU026 (SEQ ID NO:4) 60 ug/head/day (G7), test substance HU027 (SEQ ID NO:5) 20 ug/head/day (G8), test substance HU027 (SEQ ID NO:5) 60 ug/head/day (G9) and positive control minoxyl 3% (G10) administered groups. Each group had 10 animals.
After the animal was put under anesthesia using zoletil (1 mL/kg, i.p), the back of the animal was primarily shaved using a depilator, and Veet depilatory was evenly applied on the back. After about 5 minutes, the applied site was cleaned up using gauze moistened with sterile water for injection. Only animal whose shaved back was scarlet in color was used for group separation. The test substance was applied to the same site daily once per day, 7 times per week for 14 days, and the test substance was evenly applied to the shaved site (on the back) by rubbing with a glass rod about 10 times.
The hair growing area (%) relative to the test substance-applied area was measured and determined, and Image analyzer program (Image Pro Plus ver. 6.3, Cybermetics, USA) was used to measure. It was measured on the 1st, 3rd, 7th, 10th and 14th days after test substance administration. Imaging was performed together with the measurements on the date when the hair area was measured. On the next day after the end of application, the animals were killed by CO2 gas, and hair on the hair growing area was removed by a depilator and hair weight was measured.
The measurement results were analyzed using SPSS (ver. 10.1K), Duncan t-test for weight changes was conducted through one-way analysis of variance, hair weight was compared between groups using Student's t-test, and hair growing area was compared between groups through nonparametric multiple comparison procedures Whitney-Mann methods. P<0.05 was determined to be statistically significant.

[5] = test system: skin; conditions: in vivo
Procedure: as §4, §5

HU022: polypeptide consisting of 452nd-509th amino acids of ADAM 15 (GenBank AAH14566.1), 58 amino acids; commercial product (EYEGENE Inc.)
Epidermal regeneration ([1]; 3.3 μg/head/day): 0.1 ± 0.0 points | Eschar ([1]; 3.3 μg/head/day): 4.0 ± 0.0 points | Fibroplasia (connective tissue growth) ([1]; 3.3 μg/head/day): 3.1 ± 0.3 points | Infiltration of Inflammatory cells ([1]; 3.3 μg/head/day): 3.0 ± 0.0 points | Pilosebaceous (skin appendage regeneration) ([1]; 3.3 μg/head/day): 0.1 ± 0.3 points | Epidermal regeneration ([1]; 10 μg/head/day): 0.6 ± 0.5 points | Eschar ([1]; 10 μg/head/day): 3.2 ± 0.6 points | Fibroplasia (connective tissue growth) ([1]; 10 μg/head/day): 3.0 ± 0.5 points | Infiltration of Inflammatory cells ([1]; 10 μg/head/day): 3.0 ± 0.0 points | Pilosebaceous (skin appendage regeneration) ([1]; 10 μg/head/day): 0.9 ± 1.1 points | Epidermal regeneration ([1]; 30 μg/head/day): 0.6 ± 0.7 points | Eschar ([1]; 30 μg/head/day): 2.7 ± 0.7 points | Fibroplasia (connective tissue growth) ([1]; 30 μg/head/day): 3.3 ± 0.5 points | Infiltration of Inflammatory cells ([1]; 30 μg/head/day): 3.0 ± 0.0 points | Pilosebaceous (skin appendage regeneration) ([1]; 30 μg/head/day): 1.1 ± 1.0 points | abnormal response / skin irritation [2]: safe product not causing irritation to the skin | BURN WOUNDED AREA ([3]; 3.3 μg/head/day, Day 1): 4.8 ± 0.8 cm^2 | BURN WOUNDED AREA (%) ([3]; 3.3 μg/head/day, Day 1): 100.0 ± 16.3% | BURN WOUNDED AREA ([3]; 3.3 μg/head/day, Day 4): 3.8 ± 0.6 cm^2 | BURN WOUNDED AREA (%) ([3]; 3.3 μg/head/day, Day 4): 79.2 ± 13.571% | BURN WOUNDED AREA ([3]; 3.3 μg/head/day, Day 8): 2.9 ± 0.6 cm^2 | BURN WOUNDED AREA (%) ([3]; 3.3 μg/head/day, Day 8): 60.8 ± 11.9% | BURN WOUNDED AREA ([3]; 3.3 μg/head/day, Day 11): 2.5 ± 0.7 cm^2 | BURN WOUNDED AREA (%) ([3]; 3.3 μg/head/day, Day 11): 51.6 ± 15.7% | BURN WOUNDED AREA ([3]; 3.3 μg/head/day, Day 15): 1.9 ± 0.6 cm^2 | BURN WOUNDED AREA (%) ([3]; 3.3 μg/head/day, Day 15): 40.1 ± 12.8% | BURN WOUNDED AREA ([3]; 10 μg/head/day, Day 1): 4.3 ± 0.9 cm^2 | BURN WOUNDED AREA (%) ([3]; 10 μg/head/day, Day 1): 100.0 ± 23.0% | BURN WOUNDED AREA ([3]; 10 μg/head/day, Day 4): 3.6 ± 0.8 cm^2 | BURN WOUNDED AREA (%) ([3]; 10 μg/head/day, Day 4): 82.7 ± 18.0% | BURN WOUNDED AREA ([3]; 10 μg/head/day, Day 8): 2.9 ± 0.5 cm^2 | BURN WOUNDED AREA (%) ([3]; 10 μg/head/day, Day 8): 68.2 ± 12.3% | BURN WOUNDED AREA ([3]; 10 μg/head/day, Day 11): 2.4 ± 0.3 cm^2 | BURN WOUNDED AREA (%) ([3]; 10 μg/head/day, Day 11): 56.8 ± 7.7% | BURN WOUNDED AREA ([3]; 10 μg/head/day, Day 15): 2.2 ± 0.4 cm^2 | BURN WOUNDED AREA (%) ([3]; 10 μg/head/day, Day 15): 51.9 ± 8.9% | BURN WOUNDED AREA ([3]; 30 μg/head/day, Day 1): 5.2 ± 0.4 cm^2 | BURN WOUNDED AREA (%) ([3]; 30 μg/head/day, Day 1): 100.0 ± 7.0% | BURN WOUNDED AREA ([3]; 30 μg/head/day, Day 4): 3.5 ± 0.5 cm^2 | BURN WOUNDED AREA (%) ([3]; 30 μg/head/day, Day 4): 67.6 ± 9.3 % | BURN WOUNDED AREA ([3]; 30 μg/head/day, Day 8): 2.9 ± 0.3 cm^2 | BURN WOUNDED AREA (%) ([3]; 30 μg/head/day, Day 8): 55.9 ± 5.1% | BURN WOUNDED AREA ([3]; 30 μg/head/day, Day 11): 2.3 ± 0.1 cm^2 | BURN WOUNDED AREA (%) ([3]; 30 μg/head/day, Day 11): 43.9 ± 2.6% | BURN WOUNDED AREA ([3]; 30 μg/head/day, Day 15): 1.8 ± 0.4 cm^2 | BURN WOUNDED AREA (%) ([3]; 30 μg/head/day, Day 15): 35.6 ± 8.4%

HU024 (RPTRGDCDLPEFCPG; disulfide 7-13; listed as Homo sapiens)
HAIR WEIGHTS ([4]; 20 ug/head/day for 14 days): 0.016 ± 0.003 g | HAIR WEIGHTS ([4]; 60 ug/head/day for 14 days): 0.023 ± 0.008 g | abnormal response / skin irritation [5]: safe product not causing irritation to the skin
